Test results published in ChEMBL document CHEMBL1201862, “PubChem BioAssay data set” (2004).
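Five concentrations, 48 hours, 96-well plates. GI50 marks 50% less growth.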 The source made the active and inactive calls. Cut-off read from the data, not from the text of the source: active = GI50 up to about 1.1 µM and inactive = higher.

Legend:
Test in all cases: NCI-60 cell line screen, 48 h
HCT-116 = test system: HCT-116
RPMI-8226 = test system: RPMI-8226
MDA-MB-231 = test system: MDA-MB-231
DU-145 = test system: DU-145
SNB-75 = test system: SNB-75
NCI-H23 = test system: NCI-H23
NCI/ADR-RES = test system: NCI/ADR-RES
A549 = test system: A549
HCC 2998 = test system: HCC 2998
SF-268 = test system: SF-268
ACHN = test system: ACHN
IGROV-1 = test system: IGROV-1
UACC-257 = test system: UACC-257
786-0 = test system: 786-0
Malme-3M = test system: Malme-3M
HL-60 = test system: HL-60
TK-10 = test system: TK-10
KM12 = test system: KM12
UO-31 = test system: UO-31
SR = test system: SR

Measured: GI50

O=c1cc(N2CCCC2)[nH]c(=O)n1-c1ccc(Cl)cc1
inactive: HCT-116 > 100 µM | RPMI-8226 > 100 µM | MDA-MB-231 > 100 µM | DU-145 > 100 µM | SNB-75 > 100 µM | NCI-H23 > 100 µM | NCI/ADR-RES > 100 µM | A549 > 100 µM | HCC 2998 > 100 µM | SF-268 > 100 µM | ACHN > 100 µM | IGROV-1 > 100 µM | UACC-257 > 100 µM | 786-0 > 100 µM | Malme-3M > 100 µM | HL-60 > 100 µM | TK-10 > 100 µM | KM12 > 100 µM

Cc1ccc2nc(N/N=C/c3sccc3C)cc(C)c2c1
inactive: HCT-116 42.6 µM | MDA-MB-231 14.7 µM | DU-145 > 100 µM | SNB-75 38.7 µM | NCI-H23 > 100 µM | NCI/ADR-RES > 100 µM | A549 83.9 µM | HCC 2998 > 100 µM | SF-268 > 100 µM | ACHN > 100 µM | IGROV-1 37.2 µM | UO-31 > 100 µM | UACC-257 > 100 µM | 786-0 29.2 µM | HL-60 28.4 µM | TK-10 29.1 µM | KM12 > 100 µM

COc1cc(C2SC(=N)Nc3c2c(C)nn3C(=O)Cc2ccccc2)cc(OC)c1OC (stereo not given)
inactive: HCT-116 > 100 µM | RPMI-8226 > 100 µM | MDA-MB-231 > 100 µM | DU-145 > 100 µM | SNB-75 28.4 µM | NCI-H23 > 100 µM | A549 > 100 µM | HCC 2998 > 100 µM | SF-268 > 100 µM | ACHN > 100 µM | IGROV-1 > 100 µM | UO-31 > 100 µM | UACC-257 > 100 µM | 786-0 > 100 µM | SR > 100 µM | HL-60 > 100 µM | TK-10 > 100 µM | KM12 > 100 µM

CCCCCCCCCCCCCCCCCCNc1ccn(C2OC(CO)C(OP(=O)(O)OCC(O)COP(=O)(O)OCC3OC(n4cc(F)c(NCCCCCCCCCCCCCCCCCC)nc4=O)CC3O)C2O)c(=O)n1 (stereo not given)
inactive: HCT-116 > 50 µM | RPMI-8226 > 50 µM | MDA-MB-231 > 50 µM | DU-145 > 50 µM | SNB-75 > 50 µM | NCI-H23 > 50 µM | NCI/ADR-RES > 50 µM | A549 > 50 µM | HCC 2998 > 50 µM | SF-268 > 50 µM | ACHN > 50 µM | IGROV-1 > 50 µM | UO-31 > 50 µM | UACC-257 > 50 µM | 786-0 > 50 µM | Malme-3M > 50 µM | HL-60 > 50 µM | TK-10 > 50 µM | KM12 > 50 µM

CCOC(=O)c1cn(-c2ccc([N+](=O)[O-])cc2)c(=S)n2c1nc1ccccc12
inactive: HCT-116 31.1 µM | RPMI-8226 24.6 µM | MDA-MB-231 30.9 µM | DU-145 81.7 µM | SNB-75 > 100 µM | NCI-H23 34.1 µM | NCI/ADR-RES 20.8 µM | A549 36.7 µM | HCC 2998 23.1 µM | ACHN 32 µM | IGROV-1 54.1 µM | UO-31 1.83 µM | UACC-257 30.7 µM | 786-0 30.1 µM | SR 39.5 µM | KM12 30.1 µM

Fc1ccc(C(OCCN2CC3CC2CN3CCCc2ccccc2)c2ccc(F)cc2)cc1 (stereo not given)
active: SNB-75 0.955 µM
inactive: HCT-116 5.86 µM | RPMI-8226 2.88 µM | MDA-MB-231 4.61 µM | DU-145 10.1 µM | NCI-H23 11.4 µM | NCI/ADR-RES 5.64 µM | A549 12 µM | HCC 2998 2.38 µM | SF-268 10.2 µM | ACHN 11.5 µM | IGROV-1 10.1 µM | UO-31 12.3 µM | UACC-257 3.69 µM | 786-0 5.53 µM | Malme-3M 2.93 µM | HL-60 2.71 µM | TK-10 11.2 µM | KM12 4.85 µM

CC(C)=CCc1c2c(c3occ(-c4ccc(O)cc4)c(=O)c3c1O)CC(C(C)(C)O)O2 (stereo not given) [SENEGALENSIN]
inactive: HCT-116 16.7 µM | RPMI-8226 9.77 µM | MDA-MB-231 14.4 µM | DU-145 15.5 µM | SNB-75 17.8 µM | NCI-H23 18.7 µM | NCI/ADR-RES 15.7 µM | A549 13 µM | HCC 2998 11.2 µM | SF-268 26.5 µM | ACHN 14.8 µM | IGROV-1 2.8 µM | UO-31 10 µM | UACC-257 15.7 µM | 786-0 16.8 µM | Malme-3M 21.3 µM | HL-60 12.4 µM | TK-10 16.5 µM | KM12 16.8 µM

COc1cc2c(cc1C)NC(=O)/C2=C\c1ccncc1
inactive: HCT-116 2.34 µM | DU-145 3.09 µM | SNB-75 13.4 µM | NCI-H23 3.43 µM | NCI/ADR-RES 3.58 µM | A549 15.3 µM | HCC 2998 12.3 µM | SF-268 3.83 µM | ACHN 6.05 µM | IGROV-1 2.43 µM | UO-31 4.1 µM | UACC-257 5.19 µM | 786-0 5.35 µM | SR 2.61 µM | Malme-3M 15.5 µM | HL-60 3.73 µM | TK-10 5.86 µM | KM12 3.48 µM

Cc1nc2cc3nc4ccccc4c(O)c3cc2s1
inactive: HCT-116 > 100 µM | RPMI-8226 > 100 µM | SNB-75 > 100 µM | NCI-H23 > 100 µM | A549 > 100 µM | HCC 2998 > 100 µM | SF-268 > 100 µM | ACHN > 100 µM | IGROV-1 > 100 µM | UO-31 > 100 µM | UACC-257 > 100 µM | 786-0 > 100 µM | SR > 100 µM | Malme-3M > 100 µM | HL-60 > 100 µM | TK-10 > 100 µM | KM12 > 100 µM

NS(=O)(=O)c1nnc(NSc2ccc([N+](=O)[O-])cc2)s1
inactive: HCT-116 > 100 µM | RPMI-8226 49.7 µM | MDA-MB-231 > 100 µM | DU-145 > 100 µM | NCI-H23 > 100 µM | NCI/ADR-RES > 100 µM | A549 > 100 µM | HCC 2998 > 100 µM | SF-268 > 100 µM | ACHN > 100 µM | UO-31 > 100 µM | UACC-257 > 100 µM | 786-0 > 100 µM | SR 59.6 µM | Malme-3M > 100 µM | TK-10 > 100 µM | KM12 > 10 µM

Cc1ccccc1C(O)(c1nccn1C)c1nccn1C
inactive: HCT-116 > 100 µM | DU-145 > 100 µM | SNB-75 > 100 µM | NCI/ADR-RES > 100 µM | A549 > 100 µM | HCC 2998 > 100 µM | SF-268 > 100 µM | ACHN > 100 µM | IGROV-1 > 100 µM | UO-31 > 100 µM | UACC-257 > 100 µM | 786-0 > 100 µM | SR > 100 µM | Malme-3M > 100 µM | HL-60 > 100 µM | TK-10 > 100 µM | KM12 > 100 µM
